From PMC7211195 (Investigational New Drugs, 2019)
“And” between values parts separate entries of the source, which are not always exact repeats. Equal entries are not always repeated. Where two headings read alike, the source gives them in different places.

Test: Lapatinib pharmacokinetics and uptake in rat brain tissue (BT);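 for BT corr (BT homogenate corrected), single rat: brain concentration corrected for residual brain blood by the Fridén method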;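 for BT corr (BT homogenate), single rat: brain concentration corrected for residual brain blood by the Fridén method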
Type: in vivo, rats
Experimental: This study was conducted on rats, which are a promising model to predict P-gp-based drug-drug interactions at the human BBB [15]. The animals were allowed to acclimate for one week before the beginning of the experiments. Adult male Wistar-strain rats (weight 470–525 g) were used in the study. The animals were maintained under standard breeding conditions with a 12/12 h light-dark cycle (lights on at 6.00 a.m., lights off at 6.00 p.m.) at constant room temperature (23 ± 2 °C), relative humidity (55 ± 10%) and ad libitum access to food and water. The experimental protocol for this study was reviewed and approved by the Local Ethics Committee. To obtain consistent data, the study was based on the required minimum number of animals and observation time. […] Three rats were used at each time point (n = 3). In total, the research was conducted on 66 animals (n = 33 in the experimental group and n = 33 in the control group).
Elacridar was freshly dissolved in a vehicle at an initial concentration of 20 mg/mL. […] A volume of 80 μL of blood was collected from each rat by cutting off a piece of its tail. The blood samples were collected into heparinized test tubes at the following time points: […], and they were immediately centrifuged at 2880 g for 10 min at 4 °C. The anaesthetized rats (anaesthetized by intramuscular administration of 50 mg/kg ketamine and 10 mg/kg xylazine) were prepared for cisterna magna puncture. The hair over the puncture was removed and the skin was disinfected with alcohol. The animals were placed in a recumbent position with an elevated rear part of the body. The animals’ heads were slightly flexed and immobilized with the operator’s left hand. The space between the occiput rostrally and the atlas (C1) of the spinal column caudally was gently palpated with the left thumb. A 0.7 × 20 G needle with polyethylene tubing (Terumo Poland, Warsaw, Poland) was gently inserted at an approximate angle of 80–90° through the skin with the operator’s right hand into the midsagittal region. The moment that dura mater perforation was perceptible, a small amount of CSF was found in the needle tubing. To sample additional CSF, a 1 mL insulin syringe (Becton Dickinson, Warsaw, Poland) was used to collect 80–120 μL of CSF by very gentle aspiration. Only clear CSF was collected for further analysis. […] The animals’ brains were immediately dissected, washed in 0.9% NaCl and divided along the longitudinal axis. One of the brain hemispheres was again rinsed three times with 5 mL of 0.9% NaCl, weighed and homogenized with 0.9% NaCl (4 mL per 1 g of BT) in an Ultra-Turrax homogenizer (Witko, Łódź, Poland). The homogenate was then centrifuged at 4500 g for 10 min. All samples of the rat BP, CSF, and BT homogenate supernatant were stored at −80 °C until analysis.
The chromatographic analysis was conducted using a 1260 Infinity system (Agilent Technologies, Santa Clara, USA) equipped with a Kinetex® C18 column (50 × 4.6 mm, 2.6 μm, Phenomenex, Torrance, USA), which was maintained at 35 °C. The mobile phase consisted of 0.1% formic acid (v/v) in water with 5 mM ammonium formate (solvent A) and acetonitrile with 10% phase A (v/v, solvent B). The analyte and internal standard (IS, erlotinib) were eluted using a gradient run of 10 min as follows: 95% A at 0–2 min; 95%–5% A at 2–4 min; 5% A at 4–5 min; 5%–95% A at 5–6 min; 95% A at 6–10 min. The flow rate and injection volume were set at 0.7 mL/min and 10 μL, respectively. The needle was washed for 30 s in a mixture of acetonitrile, methanol, isopropanol, water, and formic acid (50:20:15:15:0.25, v/v/v/v/v).

[1] = male, Wistar, rat, brain tissue homogenate, corrected for residual blood, po, 100 mg/kg, lapatinib p.o. 100 mg/kg alone, read-out: BT corr (BT homogenate corrected), S
[2] = male, Wistar, rat, brain tissue homogenate, corrected for residual blood, po, 100 mg/kg, lapatinib p.o. 100 mg/kg alone, read-out: BT corr (BT homogenate corrected), single rat
[3] = male, Wistar, rat, brain tissue homogenate, oral, lapatinib 100 mg/kg + elacridar, read-out: BT corr (BT homogenate), S
[4] = male, Wistar, rat, brain tissue homogenate, oral, lapatinib 100 mg/kg + elacridar, read-out: BT corr (BT homogenate), single rat

## CS(=O)(=O)CCNCc1ccc(-c2ccc3ncnc(Nc4ccc(OCc5cccc(F)c5)c(Cl)c4)c3c2)o1 [lapatinib, N-{3-Chloro-4-[(3-fluorobenzyl)oxy]phenyl}-6-[5-({[2-(methylsulfonyl)ethyl]amino}methyl)-2-furyl]-4-quinazolinamine]
Lapatinib p.o. 100 mg/kg alone, 1 h, 100 mg/kg
  BT corr (BT homogenate corrected), single rat: 62.82 ng/mL
Lapatinib p.o. 100 mg/kg alone, 1 h, listed as Lapatinib, 100 mg/kg
  BT corr (BT homogenate corrected), single rat: 62.82 ng/mL
Lapatinib p.o. 100 mg/kg alone, 4 h, 100 mg/kg
  BT corr (BT homogenate corrected), single rat: 135.24 ng/mL
Lapatinib p.o. 100 mg/kg alone, 4 h, listed as Lapatinib, 100 mg/kg
  BT corr (BT homogenate corrected), single rat: 135.24 ng/mL
Lapatinib p.o. 100 mg/kg alone, 6 h, 100 mg/kg
  BT corr (BT homogenate corrected), single rat: 116.18 ng/mL and 47.54 ng/mL
Lapatinib p.o. 100 mg/kg alone, 6 h, listed as Lapatinib, 100 mg/kg
  BT corr (BT homogenate corrected), single rat: 116.18 ng/mL and 47.54 ng/mL
Lapatinib p.o. 100 mg/kg alone, 8 h, 100 mg/kg
  BT corr (BT homogenate corrected), single rat: 44.94 ng/mL
Lapatinib p.o. 100 mg/kg alone, 8 h, listed as Lapatinib, 100 mg/kg
  BT corr (BT homogenate corrected), single rat: 44.94 ng/mL
Lapatinib p.o. 100 mg/kg alone, 12 h, 100 mg/kg
  BT corr (BT homogenate corrected), single rat: 10.91 ng/mL
Lapatinib p.o. 100 mg/kg alone, 12 h, listed as Lapatinib, 100 mg/kg
  BT corr (BT homogenate corrected), single rat: 10.91 ng/mL
male, Wistar, rat, brain tissue (homogenate supernatant), po, 100 mg/kg, read-out: Kp (tissue-to-plasma partition coefficient, AUC0-∞-tissue/AUC0-∞-plasma)
  Kp: 0.036
male, Wistar, rat, brain tissue homogenate, corrected for residual blood, oral, lapatinib 100 mg/kg + elacridar, 4 h, read-out: BT corr (BT homogenate), single rat
  concentration at 4 h: 78.2 ng/mL
male, Wistar, rat, brain tissue homogenate, corrected for residual blood, oral, lapatinib 100 mg/kg + elacridar, 6 h, read-out: BT corr (BT homogenate), single rat
  concentration at 6 h: 87.3 ng/mL
male, Wistar, rat, brain tissue homogenate, corrected for residual blood, oral, lapatinib 100 mg/kg + elacridar, 8 h, read-out: BT corr (BT homogenate), single rat
  concentration at 8 h: 91.5 ng/mL
male, Wistar, rat, brain tissue homogenate, corrected for residual blood, oral, lapatinib 100 mg/kg + elacridar, 12 h, read-out: BT corr (BT homogenate), single rat
  concentration at 12 h: 63.6 ng/mL
male, Wistar, rat, brain tissue homogenate, corrected for residual blood, oral, lapatinib 100 mg/kg + elacridar, 24 h, read-out: BT corr (BT homogenate), single rat
  concentration at 24 h: 52.7 ng/mL
[1]
  concentration at 0.25 h: 27.9 ng/mL
  concentration at 0.5 h: 31.5 ng/mL
  concentration at 2 h: 41.4 ng/mL
  concentration at 3 h: 111 ng/mL
[2]
  concentration at 0.25 h: 22.5 ng/mL
  concentration at 0.5 h: 24 ng/mL
  concentration at 2 h: 30.1 ng/mL
  concentration at 3 h: 139 ng/mL
male, Wistar, rat, brain tissue homogenate, corrected for residual blood, po, 100 mg/kg, lapatinib p.o. 100 mg/kg alone, 1 h, read-out: BT corr (BT homogenate corrected), S
  concentration at 1 h: 55.5 ng/mL
male, Wistar, rat, brain tissue homogenate, corrected for residual blood, po, 100 mg/kg, lapatinib p.o. 100 mg/kg alone, 1 h, read-out: BT corr (BT homogenate corrected), single rat
  concentration at 1 h: 48.1 ng/mL
male, Wistar, rat, brain tissue homogenate, corrected for residual blood, po, 100 mg/kg, lapatinib p.o. 100 mg/kg alone, 4 h, read-out: BT corr (BT homogenate corrected), S
  concentration at 4 h: 115 ng/mL
male, Wistar, rat, brain tissue homogenate, corrected for residual blood, po, 100 mg/kg, lapatinib p.o. 100 mg/kg alone, 4 h, read-out: BT corr (BT homogenate corrected), single rat
  concentration at 4 h: 94.2 ng/mL
male, Wistar, rat, brain tissue homogenate, corrected for residual blood, po, 100 mg/kg, lapatinib p.o. 100 mg/kg alone, 6 h, read-out: BT corr (BT homogenate corrected), S
  concentration at 6 h: 81.9 ng/mL
male, Wistar, rat, brain tissue homogenate, corrected for residual blood, po, 100 mg/kg, lapatinib p.o. 100 mg/kg alone, 8 h, read-out: BT corr (BT homogenate corrected), S
  concentration at 8 h: 66.2 ng/mL
male, Wistar, rat, brain tissue homogenate, corrected for residual blood, po, 100 mg/kg, lapatinib p.o. 100 mg/kg alone, 8 h, read-out: BT corr (BT homogenate corrected), single rat
  concentration at 8 h: 87.5 ng/mL
male, Wistar, rat, brain tissue homogenate, corrected for residual blood, po, 100 mg/kg, lapatinib p.o. 100 mg/kg alone, 12 h, read-out: BT corr (BT homogenate corrected), S
  concentration at 12 h: 44.5 ng/mL
[3]
  concentration at 0.25 h: 33.1 ng/mL
  concentration at 0.5 h: 43.6 ng/mL
[4]
  concentration at 0.25 h: 30.7 ng/mL
  concentration at 0.5 h: 45.2 ng/mL
male, Wistar, rat, brain tissue homogenate, oral, lapatinib 100 mg/kg + elacridar, 1 h, read-out: BT corr (BT homogenate), S
  concentration at 1 h: 79.1 ng/mL
male, Wistar, rat, brain tissue homogenate, oral, lapatinib 100 mg/kg + elacridar, 1 h, read-out: BT corr (BT homogenate), single rat
  concentration at 1 h: 74.9 ng/mL
